In the NIST ThermoML archive (doi:10.1021/acs.jced.7b00773):

Settings: Liquid; for viscosity: Concentric cylinders viscometry

CCCC[N+]1(C)CCCC1.O=S(=O)([N-]S(=O)(=O)C(F)(F)F)C(F)(F)F
100 kPa
Settings	viscosity [mPa·s]
293.15 K	98.53
303.15 K	61.87
313.15 K	41.45
323.15 K	29.25
333.15 K	21.53
343.15 K	16.4
353.15 K	12.86
363.15 K	10.33
373.15 K	8.471

Settings	mass density [kg/m3]
293.15 K, 100 kPa, Vibrating tube method	1398.7
303.15 K, 100 kPa, Vibrating tube method	1389.8
311.6 K, 10000 kPa, Bellows volumetry	1389.1
311.6 K, 20000 kPa, Bellows volumetry	1396.1
311.6 K, 30000 kPa, Bellows volumetry	1402.6
311.6 K, 40000 kPa, Bellows volumetry	1408.7
311.6 K, 50000 kPa, Bellows volumetry	1414.5
311.6 K, 60000 kPa, Bellows volumetry	1420.1
311.6 K, 70000 kPa, Bellows volumetry	1425.5
311.6 K, 80000 kPa, Bellows volumetry	1430.7
311.6 K, 90000 kPa, Bellows volumetry	1435.5
311.6 K, 100000 kPa, Bellows volumetry	1440.4
311.6 K, 110000 kPa, Bellows volumetry	1445.5
311.6 K, 120000 kPa, Bellows volumetry	1449.8
311.6 K, 130000 kPa, Bellows volumetry	1454.3
311.6 K, 140000 kPa, Bellows volumetry	1458.6
311.6 K, 150000 kPa, Bellows volumetry	1462.9
311.6 K, 160000 kPa, Bellows volumetry	1467.2
311.6 K, 170000 kPa, Bellows volumetry	1471.2
311.6 K, 180000 kPa, Bellows volumetry	1475.1
311.6 K, 190000 kPa, Bellows volumetry	1479
311.6 K, 200000 kPa, Bellows volumetry	1483
313.15 K, 100 kPa, Vibrating tube method	1381
323.15 K, 100 kPa, Vibrating tube method	1372.4
331.5 K, 10000 kPa, Bellows volumetry	1372.4
331.5 K, 20000 kPa, Bellows volumetry	1379.6
331.5 K, 30000 kPa, Bellows volumetry	1386.5
331.5 K, 40000 kPa, Bellows volumetry	1393
331.5 K, 50000 kPa, Bellows volumetry	1399.1
331.5 K, 60000 kPa, Bellows volumetry	1405
331.5 K, 70000 kPa, Bellows volumetry	1410.6
331.5 K, 80000 kPa, Bellows volumetry	1416
331.5 K, 90000 kPa, Bellows volumetry	1421.3
331.5 K, 100000 kPa, Bellows volumetry	1426.6
331.5 K, 110000 kPa, Bellows volumetry	1431.4
331.5 K, 120000 kPa, Bellows volumetry	1436
331.5 K, 130000 kPa, Bellows volumetry	1440.6
331.5 K, 140000 kPa, Bellows volumetry	1445.1
331.5 K, 150000 kPa, Bellows volumetry	1449.5
331.5 K, 160000 kPa, Bellows volumetry	1454
331.5 K, 170000 kPa, Bellows volumetry	1458.1
331.5 K, 180000 kPa, Bellows volumetry	1462.1
331.5 K, 190000 kPa, Bellows volumetry	1466.1
331.5 K, 200000 kPa, Bellows volumetry	1470.2
333.15 K, 100 kPa, Vibrating tube method	1363.9
343.15 K, 100 kPa, Vibrating tube method	1355.5
351.6 K, 10000 kPa, Bellows volumetry	1355.8
351.6 K, 20000 kPa, Bellows volumetry	1363.3
351.6 K, 30000 kPa, Bellows volumetry	1370.6
351.6 K, 40000 kPa, Bellows volumetry	1377.4
351.6 K, 50000 kPa, Bellows volumetry	1383.9
351.6 K, 60000 kPa, Bellows volumetry	1390
351.6 K, 70000 kPa, Bellows volumetry	1395.9
351.6 K, 80000 kPa, Bellows volumetry	1401.7
351.6 K, 90000 kPa, Bellows volumetry	1407.4
351.6 K, 100000 kPa, Bellows volumetry	1412.4
351.6 K, 110000 kPa, Bellows volumetry	1417.5
351.6 K, 120000 kPa, Bellows volumetry	1422.3
351.6 K, 130000 kPa, Bellows volumetry	1427.1
351.6 K, 140000 kPa, Bellows volumetry	1431.7
351.6 K, 150000 kPa, Bellows volumetry	1436.5
351.6 K, 160000 kPa, Bellows volumetry	1440.8
351.6 K, 170000 kPa, Bellows volumetry	1445.1
351.6 K, 180000 kPa, Bellows volumetry	1449.2
351.6 K, 190000 kPa, Bellows volumetry	1453.3
351.6 K, 200000 kPa, Bellows volumetry	1457.4
353.15 K, 100 kPa, Vibrating tube method	1347.1
363.15 K, 100 kPa, Vibrating tube method	1338.7
371.6 K, 10000 kPa, Bellows volumetry	1339.4
371.6 K, 20000 kPa, Bellows volumetry	1347.4
371.6 K, 30000 kPa, Bellows volumetry	1355.3
371.6 K, 40000 kPa, Bellows volumetry	1362.4
371.6 K, 50000 kPa, Bellows volumetry	1369.3
371.6 K, 60000 kPa, Bellows volumetry	1375.8
371.6 K, 70000 kPa, Bellows volumetry	1382
371.6 K, 80000 kPa, Bellows volumetry	1387.9
371.6 K, 90000 kPa, Bellows volumetry	1393.8
371.6 K, 100000 kPa, Bellows volumetry	1399
371.6 K, 110000 kPa, Bellows volumetry	1404.3
371.6 K, 120000 kPa, Bellows volumetry	1409.6
371.6 K, 130000 kPa, Bellows volumetry	1414.5
371.6 K, 140000 kPa, Bellows volumetry	1419.3
371.6 K, 150000 kPa, Bellows volumetry	1424
371.6 K, 160000 kPa, Bellows volumetry	1428.4
371.6 K, 170000 kPa, Bellows volumetry	1433
371.6 K, 180000 kPa, Bellows volumetry	1437.4
371.6 K, 190000 kPa, Bellows volumetry	1441.6
371.6 K, 200000 kPa, Bellows volumetry	1445.7
373.15 K, 100 kPa, Vibrating tube method	1329.8
391.6 K, 10000 kPa, Bellows volumetry	1323.3
391.6 K, 20000 kPa, Bellows volumetry	1331.9
391.6 K, 30000 kPa, Bellows volumetry	1340.1
391.6 K, 40000 kPa, Bellows volumetry	1347.7
391.6 K, 50000 kPa, Bellows volumetry	1354.8
391.6 K, 60000 kPa, Bellows volumetry	1361.5
391.6 K, 70000 kPa, Bellows volumetry	1368.2
391.6 K, 80000 kPa, Bellows volumetry	1374.3
391.6 K, 90000 kPa, Bellows volumetry	1380.3
391.6 K, 100000 kPa, Bellows volumetry	1385.9
391.6 K, 110000 kPa, Bellows volumetry	1391.3
391.6 K, 120000 kPa, Bellows volumetry	1396.9
391.6 K, 130000 kPa, Bellows volumetry	1401.9
391.6 K, 140000 kPa, Bellows volumetry	1406.8
391.6 K, 150000 kPa, Bellows volumetry	1411.5
391.6 K, 160000 kPa, Bellows volumetry	1416.3
391.6 K, 170000 kPa, Bellows volumetry	1420.8
391.6 K, 180000 kPa, Bellows volumetry	1425.3
391.6 K, 190000 kPa, Bellows volumetry	1429.7
391.6 K, 200000 kPa, Bellows volumetry	1434
411.3 K, 10000 kPa, Bellows volumetry	1307.4
411.3 K, 20000 kPa, Bellows volumetry	1316.7
411.3 K, 30000 kPa, Bellows volumetry	1325.3
411.3 K, 40000 kPa, Bellows volumetry	1333.4
411.3 K, 50000 kPa, Bellows volumetry	1341
411.3 K, 60000 kPa, Bellows volumetry	1348
411.3 K, 70000 kPa, Bellows volumetry	1354.7
411.3 K, 80000 kPa, Bellows volumetry	1361.2
411.3 K, 90000 kPa, Bellows volumetry	1367.3
411.3 K, 100000 kPa, Bellows volumetry	1373.4
411.3 K, 110000 kPa, Bellows volumetry	1379
411.3 K, 120000 kPa, Bellows volumetry	1384.4
411.3 K, 130000 kPa, Bellows volumetry	1389.7
411.3 K, 140000 kPa, Bellows volumetry	1394.9
411.3 K, 150000 kPa, Bellows volumetry	1400
411.3 K, 160000 kPa, Bellows volumetry	1404.8
411.3 K, 170000 kPa, Bellows volumetry	1409.4
411.3 K, 180000 kPa, Bellows volumetry	1414.1
411.3 K, 190000 kPa, Bellows volumetry	1418.5
411.3 K, 200000 kPa, Bellows volumetry	1422.8
